Data set [1] relates to Mycobacterium smegmatis strain ATCC19420. In words: In vitro efficacy test using Mycobacterium smegmatis strain ATCC19420 (MIC). The class given is cell-based. The settings on record: CA-MHB + 0.02% Tween 80, 30° C., read after 72 hours; for MIC: Mycolicibacterium smegmatis, ATCC19420, 72 h.
The subject of a further data set is M. tuberculosis H37Rv. In words: In vitro efficacy test using the H37Rv strain, Microplate Alamar Blue Assay (MABA) MIC. The data set is classed as cell-based, Mycobacterium tuberculosis. The following applies: for MIC: Mycobacterium tuberculosis, H37RV.
A further data set has as its system M. tuberculosis H37R. The data set can be described thus: microbe, parasite or virus in culture. The data set is classed as cell-based, Mycobacterium tuberculosis. The settings on record: for MIC: Mycobacterium tuberculosis, H37R, read-out: M. tuberculosis H37R LORA (MIC).
The test system of a further data set is Vero Cell. The data set can be described thus: Vero cell cytotoxicity (IC50). The settings on record: Chlorocebus sabaeus, Vero, African green monkey kidney cells. The class given is cell-based.
The nature of data set [2]: Hela cell cytotoxicity (CC50). The following applies: human, HeLa cells (human cervical cancer cells), CC50_Hela, half of the toxic concentration.
Where [3] appears, read: aerobic, 7H9 medium, Alamar Blue, read-out: M. tuberculosis H37Rv MABA (MIC).

Molecules are shown by their SMILES. In brackets after ≈: the same amount, converted by molar mass. Where two headings read alike, the source gives them in different places. A value given as a limit tells only on which side of the number the result lay.

A word on the IC50: it is the point on the concentration scale where inhibition reaches its midpoint. Broadly, the CC50 is the concentration giving 50% cytotoxicity. On to `COc1ncc(-c2ccc(F)cc2)cc1C(c1ccccc1)C(O)(CCN(C)C)c1cccc2ccccc12` (stereo not shown) [Compound 91, 4-(dimethylamino)-1-(5-(4-fluorophenyl)-2-methoxypyridin-3-yl)-2-(naphthalen-1-yl)-1-phenylbutan-2-ol], for which the figures for the MIC (in data set [1]; in the data set with M. tuberculosis H37Rv (setting [3]); in the data set with M. tuberculosis H37R) were 0.0312 µg/mL, 0.34 µg/mL and 0.71 µg/mL (≈ 1.36 µM), respectively. Also, the IC50 in the data set with Vero Cell was > 50 µg/mL. For the same molecule, the CC50 in data set [2] is > 64 µg/mL.

For `COc1ncc(N2CCOCC2)cc1C(c1ccccc1)C(O)(CCN(C)C)c1cccc2ccccc12` (stereo not shown) [Compound 269, 4-(dimethylamino)-1-(2-methoxy-5-morpholinopyridin-3-yl)-2-(naphthalen-1-yl)-1-phenylbutan-2-ol], the MIC in data set [1] is 0.25 µg/mL; in the data set on M. tuberculosis H37Rv (setting [3]) it was 5.64 µg/mL; in the data set on M. tuberculosis H37R, 6.3 µg/mL (≈ 12.3 µM). Further, in the data set on Vero Cell, the IC50 was > 32 µg/mL. In data set [2], this molecule yielded a CC50 of 17.4 µg/mL (≈ 34.1 µM).

As for `COc1ncc(-c2ccc(Br)cc2)cc1C(c1ccccc1)C(O)(CCN(C)C)c1cccc(F)c1` (stereo not shown) [Compound 319], the MIC is 0.0312 µg/mL in data set [1], 0.09 µg/mL in the data set on M. tuberculosis H37Rv (setting [3]) and 0.22 µg/mL (≈ 0.4 µM) with M. tuberculosis H37R. The IC50 in the data set with Vero Cell was > 32 µg/mL. Moreover, the midpoint of cytotoxicity in data set [2], the CC50, lay at 49.2 µg/mL (≈ 89.5 µM).

For `COc1ncc(C#Cc2ccccc2)cc1C(c1ccccc1)C(O)(CCN(C)C)c1cccc2ccccc12` (stereo not shown) [Compound 337, 4-(dimethylamino)-1-[2-methoxy-5-(2-phenylethynyl)-3-pyridyl]-2-(1-naphthyl)-1-phenyl-butan-2-ol], the MIC in data set [1] amounted to 0.25 µg/mL; in the data set on M. tuberculosis H37Rv (setting [3]) it was 0.14 µg/mL; in the data set on M. tuberculosis H37R, 1.51 µg/mL (≈ 2.87 µM). For the same molecule, in the data set with Vero Cell, the IC50 was > 32 µg/mL. For the same molecule, in data set [2], the CC50 is > 64 µg/mL.

For the molecule `COc1ncc(-c2ccc(Cl)cc2)cc1C(c1ccccc1)C(O)(CCN(C)C)c1cccc(Br)c1` (single isomer, unassigned) [Compound 388, 2-(3-bromophenyl)-1-(5-(4-chlorophenyl)-2-methoxypyridin-3-yl)-4-(dimethylamino)-1-phenylbutan-2-ol], the MIC in data set [1] is 0.0156 µg/mL; in the data set on M. tuberculosis H37Rv (setting [3]), 0.062 µg/mL; in the data set on M. tuberculosis H37R, < 0.125 µg/mL. In the data set on Vero Cell, the IC50 was > 32 µg/mL. This molecule returned a CC50 in data set [2] of 26.2 µg/mL (≈ 46.2 µM).

On to `COc1ncc(-c2ccc(OC(F)(F)F)cc2)cc1C(c1ccccc1)C(O)(CCN(C)C)c1cccc2ccccc12` (stereo not shown) [Compound 375, 4-(dimethylamino)-1 (2-methoxy-5-(4-(trifluoromethoxy)phenyl)pyridin-3-yl)-2-(naphthalen-1-yl)-1-phenylbutan-2-ol], for which the MIC in data set [1] came out at 0.0156 µg/mL; in the data set with M. tuberculosis H37Rv (setting [3]) it was 0.031 µg/mL; in the data set with M. tuberculosis H37R, 0.61 µg/mL (≈ 1.04 µM). Further, the IC50 in the data set with Vero Cell was > 32 µg/mL. The CC50 in data set [2] is > 64 µg/mL.

Turning to `COc1ncc(-c2ccccc2)cc1C(c1ccccc1)C(O)(CCN(C)C)c1cccc2ccccc12` (stereo not shown) [Compound 9, 4-(dimethylamino)-1-(2-methoxy-5-phenylpyridin-3-yl)-2-(naphthalen-1-yl)-1-phenylbutan-2-ol], the MIC came to 0.0312 µg/mL in data set [1]; 1.08 µg/mL in the data set with M. tuberculosis H37Rv (setting [3]); 0.46 µM in the data set on M. tuberculosis H37Rv (wild-type H37Rv strain, two values per compound, read-out: MABA MIC vs. H37Rv); 0.72 µg/mL (≈ 1.43 µM) in the data set with M. tuberculosis H37R. Besides, in the data set on M. tuberculosis H37Rv (wild-type H37Rv strain, two values per compound), the “MABA MIC vs. H37Rv” value is 0.36 µM. Further, the 50% inhibitory concentration (IC50) in the data set with Vero Cell was > 50 µg/mL. In addition, the midpoint of cytotoxicity in data set [2], the CC50, lay at 30.4 µg/mL (≈ 60.4 µM).

As to `COc1ncc(-c2ccc(Br)cc2)cc1C(c1ccccc1)C(O)(CCN(C)C)c1cccc(F)c1F` (stereo not shown) [Compound 312, 1-(5-(4-bromophenyl)-2-methoxypyridin-3-yl)-2-(2,3-difluorophenyl)-4-(dimethylamino)-1-phenylbutan-2-ol], the MIC came out at 0.0156 µg/mL in data set [1], 0.04 µg/mL in the data set with M. tuberculosis H37Rv (setting [3]) and 0.19 µg/mL (≈ 0.335 µM) in the data set on M. tuberculosis H37R. The IC50 with Vero Cell was > 32 µg/mL. For the same molecule, the midpoint of cytotoxicity in data set [2], the CC50, lay at 31.3 µg/mL (≈ 55.2 µM).

On to `COc1ncc(-c2ccc(Cl)c(F)c2)cc1C(c1ccccc1)C(O)(CCN(C)C)c1cccc2ccccc12` (stereo not shown) [Compound 303, 1-(5-(4-chloro-3-fluorophenyl)-2-methoxypyridin-3-yl)-4-(dimethylamino)-2-(naphthalen-1-yl)-1-phenylbutan-2-ol], for which the MIC was determined as 0.0312 µg/mL in data set [1], 0.19 µg/mL in the data set on M. tuberculosis H37Rv (setting [3]) and 0.52 µg/mL (≈ 0.937 µM) in the data set on M. tuberculosis H37R. Also, the IC50 in the data set with Vero Cell was > 32 µg/mL. The CC50 in data set [2] was > 64 µg/mL.

For the molecule `COc1cccc(C(c2cc(-c3ccc(Cl)cc3)cnc2OC)C(O)(CCN(C)C)c2cc(Cl)cc(Cl)c2)c1OC` (single isomer, unassigned) [Compound 395, 1-(5-(4-chlorophenyl)-2-methoxypyridin-3-yl)-2-(3,5-dichlorophenyl)-1-(2,3-dimethoxyphenyl)-4-(dimethylamino)butan-2-ol], the values for the MIC (in data set [1]; in the data set with M. tuberculosis H37Rv (setting [3]); in the data set with M. tuberculosis H37R) were 0.039 µg/mL, 0.031 µg/mL and < 0.125 µg/mL, respectively. Besides, the IC50 in the data set on Vero Cell is > 32 µg/mL. Also, the CC50 in data set [2] was > 64 µg/mL.

Turning to `COc1ncc(-c2ccsn2)cc1C(c1ccccc1)C(O)(CCN(C)C)c1cccc2ccccc12` (stereo not shown) [Compound 145, 4-(dimethylamino)-1-(5-(isothiazol-3-yl)-2-methoxypyridin-3-yl)-2-(naphthalen-1-yl)-1-phenylbutan-2-ol], the values for the MIC (in data set [1]; in the data set on M. tuberculosis H37Rv (setting [3]); in the data set with M. tuberculosis H37R) were 0.0625 µg/mL, 0.97 µg/mL and 1.57 µg/mL (≈ 3.08 µM), respectively. The molecule further registered an IC50 in the data set on Vero Cell of 25.1 µg/mL (≈ 49.2 µM). The molecule also registered a CC50 in data set [2] of 12.7 µg/mL (≈ 24.8 µM).

For the molecule `COc1cccc(C(c2cc(-c3ccccc3)cnc2OC)C(O)(CCN(C)C)c2cc(Cl)cc(Cl)c2)c1OC` (stereo not shown) [Compound 213, 2-(3,5-dichlorophenyl)-1-(2,3-dimethoxyphenyl)-4-(dimethylamino)-1-(2-methoxy-5-phenylpyridin-3-yl)butan-2-ol], the MIC in data set [1] was ≤ 0.0625 µg/mL; in the data set with M. tuberculosis H37Rv (setting [3]), 0.125 µg/mL; with M. tuberculosis H37R it was 0.46 µg/mL (≈ 0.791 µM). This molecule also showed an IC50 in the data set on Vero Cell of 25.2 µg/mL (≈ 43.3 µM). Also, the CC50 in data set [2] was > 64 µg/mL.

For `COc1ncc(C2=CCSCC2)cc1C(c1ccccc1)C(O)(CCN(C)C)c1cccc2ccccc12` (stereo not shown) [Compound 259, 1-(5-(3,6-dihydro-2H-thiopyran-4-yl)-2-methoxypyridin-3-yl)-4-(dimethylamino)-2-(naphthalen-1-yl)-1-phenylbutan-2-ol], the results for the MIC (in data set [1]; in the data set with M. tuberculosis H37Rv (setting [3]); in the data set on M. tuberculosis H37R) were 0.125 µg/mL, 0.32 µg/mL and 4.33 µg/mL (≈ 8.25 µM), respectively. Besides, the IC50 in the data set with Vero Cell was > 32 µg/mL. Further, in data set [2], the CC50 was > 64 µg/mL.

As for `COc1ncc(-c2ccoc2)cc1C(c1ccccc1)C(O)(CCN(C)C)c1cccc2ccccc12` (stereo not shown) [Compound 178, 4-(dimethylamino)-1-(5-(furan-3-yl)-2-methoxypyridin-3-yl)-2-(naphthalen-1-yl)-1-phenylbutan-2-ol], the MIC came to 0.0312 µg/mL in data set [1], 0.78 µg/mL in the data set with M. tuberculosis H37Rv (setting [3]) and 0.88 µg/mL (≈ 1.79 µM) with M. tuberculosis H37R. This molecule also had an IC50 in the data set on Vero Cell of 25.5 µg/mL (≈ 51.8 µM). In addition, the midpoint of cytotoxicity in data set [2], the CC50, lay at 25.8 µg/mL (≈ 52.3 µM).

On to `COc1ncc(C2CCCC2)cc1C(c1ccccc1)C(O)(CCN(C)C)c1cccc2ccccc12` (stereo not shown) [Compound 63], for which the “M. smegmatis ATCC19420 MIC” value in data set [1] was <0.0625 µg/mL. Also, in the data set with M. tuberculosis H37Rv (aerobic, 7H9 medium, Alamar Blue), the “M. tuberculosis H37Rv MABA (MIC)” value is 0.75 µg/mL. The “M. tuberculosis H37R LORA (MIC)” value in the data set with M. tuberculosis H37R came out at 1.41 µg/mL. In the data set with Vero Cell, the IC50 was > 50 µg/mL. Besides, the midpoint of cytotoxicity in data set [2], the CC50, lay at 52.9 µg/mL (≈ 107 µM).

As for `COc1ncc(-c2ccccc2)cc1C(c1ccc(F)cc1)C(O)(CCN(C)C)c1ccccc1` (stereo not shown) [Compound 70, 4-(dimethylamino)-1-(4-fluorophenyl)-1-(2-methoxy-5-phenylpyridin-3-yl)-2-phenylbutan-2-ol], the MIC in data set [1] amounted to 0.125 µg/mL; in the data set with M. tuberculosis H37Rv (setting [3]) it was 1.49 µg/mL; in the data set on M. tuberculosis H37R it was 1.33 µg/mL (≈ 2.83 µM). Also, the IC50 in the data set on Vero Cell was > 50 µg/mL. In addition, the CC50 in data set [2] turned out to be 13.7 µg/mL (≈ 29.1 µM).

The values are drawn from patent US9878982B2, “Pyridine derivatives and anti-mycobacterial use thereof” (priority 2014, dated 2018).
